Data taken from patent US8211929B2, “Pyrimidine derivatives as kinase modulators and method of use” (Exelixis, Inc., priority 2004, dated 2012).

How the values were obtained:
IGF 3P = target: T1, IGF 3P (Homo sapiens, UniProt P08069); experiment: IGF1R kinase assay (LCCA), IGF 3P; assay type: biochemical
T1 construct: human IGF1R kinase domain residues M954-C1367; made in house; host or cells: baculovirus expression (insect cells)
Summary of the method: (§1)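 Baculovirus-expressed human IGF1R kinase domain (M954-C1367), 4 nM, with 3 μM ATP and 4 μM poly EY in Tris-HCl pH 7.5 buffer containing MgCl2 and MnCl2, 2 h at ambient temperature. Remaining ATP read by luciferase chemiluminescence; IC50 from 10-point dose-response fitted to a four-parameter equation.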

[1] = target: T2, (Homo sapiens, UniProt P08069); experiment: IGF1R kinase assay (LCCA), IGF 0P; assay type: biochemical
T2 construct: human IGF1R kinase domain residues M954-C1367; made in house; host or cells: baculovirus expression (insect cells)
T2 sequence (P08069 954-1367): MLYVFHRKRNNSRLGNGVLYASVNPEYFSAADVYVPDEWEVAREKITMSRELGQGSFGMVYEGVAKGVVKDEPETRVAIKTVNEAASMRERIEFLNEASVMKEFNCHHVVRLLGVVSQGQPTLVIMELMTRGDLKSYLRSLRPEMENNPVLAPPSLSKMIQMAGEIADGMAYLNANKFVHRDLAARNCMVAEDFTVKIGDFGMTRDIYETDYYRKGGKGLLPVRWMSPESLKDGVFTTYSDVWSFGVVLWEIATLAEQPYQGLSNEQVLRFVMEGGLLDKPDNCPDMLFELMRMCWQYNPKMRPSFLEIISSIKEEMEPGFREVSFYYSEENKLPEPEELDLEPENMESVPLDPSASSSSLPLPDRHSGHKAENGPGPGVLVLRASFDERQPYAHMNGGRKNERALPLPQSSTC
Summary of the method: as §1

T1 sequence (P08069 954-1367): as above

Structure (SMILES) | IC50 (IGF 3P) [nM] | IC50 [1] [nM]
Cc1cc(Nc2cc(OCCN3CCOCC3)nc(NCc3cc(-c4ccccc4)no3)n2)[nH]n1 [Example 619, N^4-(3-methyl-1H-pyrazol-5-yl)-6-[(2-morpholin-4-ylethyl)oxy]-N^2-[(3-phenylisoxazol-5-yl)methy]pyrimidine-2,4-diamine] | 50 to 500 | 50 to 500
Cc1cc(Nc2cc(C3CC3)[nH]n2)nc(NCc2cc(-c3ccncc3)no2)n1 [Example 620, N^4-(5-cyclopropyl-1H-pyrazol-3-yl)-6-methyl-N^2-[(3-pyridin-4-ylisoxazol-5-yl)methyl]pyrimidine-2,4-diamine] | 50 to 500 | 50 to 500
Cc1cc(Nc2cc(C3CC3)[nH]n2)nc(NCc2cc(-c3ccc(F)c(F)c3)no2)n1 [Example 621, N^4-(5-cyclopropyl-1H-pyrazol-3-yl)-N^2-{[3-(3,4-difluorophenyl)isoxazol-5-yl]methyl}-6-methylpyrimidine-2,4-diamine] | < 50 | 50 to 500
Cc1cc(Nc2cc(C3CC3)[nH]n2)nc(NCc2cc(-c3ccc(F)cc3F)no2)n1 [Example 622, N^4-(5-cyclopropyl-1H-pyrazol-3-yl)-N^2-{[3-(2,4-difluorophenyl)isoxazol-5-yl]methyl}-6-methylpyrimidine-2,4-diamine] | < 50 | 50 to 500
Cc1cc(Nc2cc(C3CC3)[nH]n2)nc(NCc2cc(-c3cnccn3)no2)n1 [Example 623, N^4-(5-cyclopropyl-1H-pyrazol-3-yl)-6-methyl-N^2-[(3-pyrazin-2-ylisoxazol-5-yl)methyl]pyrimidine-2,4-diamine] | < 50 | 50 to 500
Clc1c(Nc2cc(C3CC3)n[nH]2)nc(NCc2cc(-c3ccccc3)no2)nc1N1CCOCC1 [Example 624, 5-chloro-N^4-(3-cyclopropyl-1H-pyrazol-5-yl)-6-morpholin-4-yl-N^2-[(3-phenylisoxazol-5-yl)methyl]pyrimidine-2,4-diamine] | 50 to 500 | 50 to 500
CN1CCN(c2nc(NCc3cc(-c4ccccc4)no3)nc(Nc3cc(C4CC4)n[nH]3)c2Cl)CC1 [Example 625, 5-chloro-N^4-(3-cyclopropyl-1H-pyrazol-5-yl)-6-(4-methylpiperazin-1-yl)-N^2-[(3-phenylisoxazol-5-yl)methyl]pyrimidine-2,4-diamine] | 50 to 500 | 50 to 500

Now from value to molecule:

IC50 (IGF 3P) [nM] | IC50 [1] [nM] | Structure (SMILES)
< 50 | 50 to 500 | c1ccc(-c2cc(CNc3nc(Nc4cc(C5CC5)[nH]n4)cc(N4CCOCC4)n3)on2)nc1 [Example 612, N^4-(5-cyclopropyl-1H-pyrazol-3-yl)-6-morpholin-4-yl-N^2-[(3-pyridin-2-ylisoxazol-5-yl)methyl]pyrimidine-2,4-diamine]
< 50 | 50 to 500 | CC(=O)N1CCN(c2cc(Nc3cc(C4CC4)[nH]n3)nc(NCc3cc(C(C)C)no3)n2)CC1 [Example 614, 6-(4-acetylpiperazin-1-yl)-N^4-(5-cyclopropyl-1H-pyrazol-3-yl)-N^2-{[3-(1-methylethyl)isoxazol-5-yl]methyl}pyrimidine-2,4-diamine]
< 50 | 50 to 500 | CC(C)c1cc(CNc2nc(Nc3cc(C4CC4)[nH]n3)cc(N3CCN(S(C)(=O)=O)CC3)n2)on1 [Example 615, N^4-(5-cyclopropyl-1H-pyrazol-3-yl)-N^2-{[3-(1-methylethyl)isoxazol-5-yl]methyl}-6-[4-(methylsulfonyl)piperazin-1-yl]pyrimidine-2,4-diamine]
< 50 | 50 to 500 | Cc1cc(Nc2cc(N3CCOCC3)nc(NCc3cc(-c4ccccc4)no3)n2)[nH]n1 [Example 617, N^4-(3-methyl-1H-pyrazol-5-yl)-6-morpholin-4-yl-N^2-[(3-phenylisoxazol-5-yl)methyl]pyrimidine-2,4-diamine]
< 50 | 50 to 500 | Cc1cc(Nc2cc(N3CCN(C)CC3)nc(NCc3cc(-c4ccccc4)no3)n2)[nH]n1 [Example 618, 6-(4-methylpiperazin-1-yl)-N^4-(3-methyl-1H-pyrazol-5-yl)-N^2-[(3-phenylisoxazol-5-yl)methyl]pyrimidine-2,4-diamine]
